Test systems include 786-0; A549; CCRF-CEM; COLO 205; DU-145; EKVX; HCC 2998; IGROV-1; KM12; MDA-N; MOLT-4; NCI-H522; OVCAR-3; OVCAR-4; RXF 393; SK-MEL-28; SR; TK-10; U-251; UO-31.
Common to all, as to assay: inhibition of tumour cell growth, NCI panel, 48 h

SMILES strings stand for the structures.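 Assay format: 96-well plates, 48-hour exposure. GI50 = concentration required for 50% inhibition of growth.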 Activity calls are given as the source filed them. Rule as the data show it: active = GI50 up to about 1.1 µM and inactive = higher. Bounds are passed on as bounds.

Regarding `O=C(Nc1sccc1S(=O)(=O)c1ccc(Cl)cc1)c1ccc(F)cc1F`, the GI50 with 786-0 was 18.7 µM (inactive); in the experiment with A549 it was 48.2 µM (inactive); with CCRF-CEM, 19.2 µM (inactive); in the experiment with COLO 205, > 100 µM (inactive); in the experiment with DU-145 it was 53.1 µM (inactive); in the experiment on EKVX, 19.6 µM (inactive). Moreover, the GI50 was > 100 µM (inactive) in the experiment with HCC 2998; 30.6 µM (inactive) with IGROV-1; > 100 µM (inactive) with KM12; > 100 µM (inactive) in the experiment on MDA-N; 20.4 µM (inactive) in the experiment with MOLT-4; 20.3 µM (inactive) with NCI-H522. The GI50 was 37.4 µM (inactive) in the experiment with OVCAR-3; 21.2 µM (inactive) in the experiment with OVCAR-4; 21.7 µM (inactive) with RXF 393; > 100 µM (inactive) in the experiment on SK-MEL-28; 18.2 µM (inactive) with SR; 20.9 µM (inactive) with TK-10. Also, the GI50 in the experiment with U-251 is 19.2 µM (inactive); with UO-31 it was 22.2 µM (inactive).

For `O=C1CCCCCCCCCCC1CCCCCBr` (stereo not given), the GI50 in the experiment with 786-0 was 32.4 µM (inactive); with A549, 29.4 µM (inactive); in the experiment with CCRF-CEM, 17 µM (inactive); in the experiment on COLO 205, 19.4 µM (inactive); in the experiment on DU-145, 28.7 µM (inactive); in the experiment with EKVX it was 41.7 µM (inactive). Besides, the GI50 with HCC 2998 was 18.5 µM (inactive); in the experiment on IGROV-1, 20.1 µM (inactive); in the experiment with KM12, 23.1 µM (inactive); in the experiment on MDA-N it was 31.8 µM (inactive); in the experiment with MOLT-4, 17.1 µM (inactive); in the experiment on NCI-H522, 19.6 µM (inactive). The GI50 with OVCAR-3 is 17.4 µM (inactive); in the experiment on OVCAR-4, 16.9 µM (inactive); in the experiment on RXF 393, 19.6 µM (inactive); in the experiment on SK-MEL-28, 19.9 µM (inactive); in the experiment on SR it was 24.7 µM (inactive); in the experiment with TK-10, 44 µM (inactive). Besides, the results for the GI50 in the experiment with U-251 and in the experiment with UO-31 were 20 µM (inactive) and 26.1 µM (inactive), respectively.

As to `N#CC1(C#N)C2(c3ccccc3)OC(c3ccccc3)(c3cc4ccccc4cc32)C1(C#N)C#N`, the GI50 with 786-0 was 8.51 µM (inactive); in the experiment on A549, 14.7 µM (inactive); in the experiment with CCRF-CEM, 1.08 µM (active); in the experiment on COLO 205, 6.17 µM (inactive); in the experiment on DU-145 it was 14.5 µM (inactive); in the experiment with EKVX it was 16.6 µM (inactive). For the same compound, the GI50 is 18.5 µM (inactive) with HCC 2998; 14.8 µM (inactive) in the experiment with IGROV-1; 7.85 µM (inactive) in the experiment with KM12; 16.9 µM (inactive) in the experiment on MDA-N; 1.71 µM (inactive) in the experiment with MOLT-4; 3.01 µM (inactive) in the experiment on NCI-H522. Further, the GI50 is 13.9 µM (inactive) in the experiment with OVCAR-3; 11.4 µM (inactive) with OVCAR-4; 5.51 µM (inactive) in the experiment with RXF 393; 12.4 µM (inactive) with SK-MEL-28; 33.3 µM (inactive) with SR; 16.2 µM (inactive) in the experiment on TK-10. Also, the GI50 in the experiment on U-251 is 16.3 µM (inactive); with UO-31, 24 µM (inactive).

On to `CCOC(=O)C(Cc1ccccc1)(Cc1ccc(O)cn1)NC(=O)c1ccccc1` (stereo not given), for which the GI50 in the experiment on 786-0 was 24.9 µM (inactive); in the experiment on A549, 27.2 µM (inactive); with CCRF-CEM, 7.03 µM (inactive); in the experiment on COLO 205 it was 24.4 µM (inactive); in the experiment on DU-145 it was 27.5 µM (inactive); with EKVX, 25.9 µM (inactive). Besides, the GI50 with HCC 2998 is 25.1 µM (inactive); with IGROV-1 it was 22.6 µM (inactive); with KM12 it was 17.5 µM (inactive); with MDA-N, 6.27 µM (inactive); with MOLT-4, 27.9 µM (inactive); in the experiment with NCI-H522, 15.6 µM (inactive). The GI50 was 19.2 µM (inactive) with OVCAR-3; 27.4 µM (inactive) in the experiment on OVCAR-4; 23.8 µM (inactive) in the experiment with RXF 393; 36.5 µM (inactive) in the experiment with SK-MEL-28; 6.56 µM (inactive) in the experiment with SR; 32.1 µM (inactive) with TK-10. Also, the GI50 was 21.7 µM (inactive) in the experiment with U-251 and 29.6 µM (inactive) with UO-31.

These data come from ChEMBL document CHEMBL1201862, “PubChem BioAssay data set” (2004).
